Test results reported in patent US7192939B2, “Pestalotiopsis microsporia isolates and compounds derived therefrom” (Montana State University, priority 2002, dated 2007).
≈ marks a conversion by molar mass, not a printed value.

Key:
Pythium ultimum = assay: Antimycotic activity, minimum inhibitory concentration in potato dextrose broth; assay type: cell-based
Method: (§1) The minimum inhibitory concentration of (1) required to give a 100% reduction of growth of a test fungus over a course of two days was determined by dissolving (1) in 1 ml of potato dextrose broth (PDB). An agar plug, 1 cm in dia, containing the test fungus was then added to the broth and the organisms incubated at 23° C. for 48 hr. At that time the plate containing the fungi was examined visually for growth and the concentration of compound reducing growth by 100% was recorded. Fungi tested were each plant pathogenic and included an oomycete—Pythium ultimum, an ascomycete—Sclerotinia sclerotiorum, and a basidiomycete—Rhizoctonia solani.
Isopestacin (1) is antimycotic, with total inhibition of Pythium ultimum, a plant pathogenic oomycete, at 40 μg/ml at 48 hr.
Pestacin was also analyzed for antifungal activity using previously described methodology. […] This level of activity is slightly greater than that previously observed for isopestacin.

[1] = ESR hydroxyl free radical scavenging (Fenton reaction, DEPMPO spin trap); assay type: biochemical; conditions: 0.18 mM OH• chemically generated (Fenton), read-out: concentration required to reduce hydroxyl free radical by 50%
Method: EPR techniques used in this work are primarily those reported by Sheu et al., 2000 and Zhu and Fung, 2000. All EPR spectra were recorded on a Bruker model ESP 300E spectrometer, X-band operating at a microwave frequency 9.787 gHz, a microwave power of 10 mW, a modulation frequency of 100.0 kHz, and a modulation amplitude of 0.367 mT. The magnetic field range was 334±80 mT, a time constant of 40.96 ms, a receiver gain of 2×10^4 and a magnetic fieldsweep rate of 0.48 mT/s. The magnetic field spacings are similar to those reported by Zhang et al (2000). The superoxide O2 ^−• was generated by the action of hypoxanthine or xanthine on water and oxygen through the catalysis of xanthine oxidase. The hydroxyl free radical OH^• is generated by the well-known Fenton reaction: Fe^2++H2O2=Fe^3++OH^−+OH^•, where 0.09 mM ferrous sulfate and 0.18 mM H2O2 were used. All enzymes and their respective substrates were purchased from Sigma Chemical Co., while other reagents were acquired from Calbiochem, and Life-Tech. […] Test compounds were added to the tube and their effects on signal reduction (antioxidant activity) were monitored. […]
Testing confirms that Isopestacin (1) indeed has antioxidant activity as determined by ESR measurements described in the experimental section. […] Simultaneously, EPR spectra are recorded of the free electrons associated with the free radicals. […]

[2] = Lipid free radical reduction; assay type: biochemical
From the text: Testing confirms that Isopestacin (1) indeed has antioxidant activity as determined by ESR measurements described in the experimental section. The compound is able to scavenge superoxide O2^−• and OH^• radicals in solution. The superoxide was generated in our experimental set-up by the action of hypoxanthine on water and oxygen via the catalysis of xanthine oxidase. On the other hand OH^• was generated via the Fenton reaction of hydrogen peroxide on ferrous iron. Simultaneously, EPR spectra are recorded of the free electrons associated with the free radicals. […] It should be noted that since superoxide was generated via the xanthine oxidase reaction it was no possible to accurately calculate the exact molar concentration of O2^−• in these reactions. However, (1) is extremely capable of scavenging the hydroxyl free radical (OH^•) with 0.22 mM required to reduce this free radical (0.18 mM OH^•—chemically generated) by 50%. This is an important biological and chemical property of (1) since OH^• is believed to be more detrimental to cell death directly than O2^−•. On the other hand, (1) has no effect in reducing the lipid free radical LOO^−•.

[3] = ESR superoxide scavenging (hypoxanthine/xanthine oxidase, EMPO spin trap); assay type: biochemical; conditions: superoxide generated by hypoxanthine/xanthine oxidase, read-out: concentration needed to reduce the free radical O2−• (ESR signal) by 50%
Method: All EPR spectra were recorded on a Bruker model ESP 300E spectrometer, X-band operating at a microwave frequency 9.787 gHz, a microwave power of 10 mW, a modulation frequency of 100.0 kHz, and a modulation amplitude of 0.367 mT. The magnetic field range was 334±80 mT, a time constant of 40.96 ms, a receiver gain of 2×10^4 and a magnetic fieldsweep rate of 0.48 mT/s. […] The superoxide O2 ^−• was generated by the action of hypoxanthine or xanthine on water and oxygen through the catalysis of xanthine oxidase. […] All enzymes and their respective substrates were purchased from Sigma Chemical Co., while other reagents were acquired from Calbiochem, and Life-Tech. The reaction mixture was transferred to an EPR flat tube for signal detection. Also placed in the tube was a spin trap compound-2-ethoxycarbonyl-2-methyl-3,4-dihydro-2H-pyrrole-1-oxide (EMPO) to trap the superoxide. […] Test compounds were added to the tube and their effects on signal reduction (antioxidant activity) were monitored. Because of the water insolubility of (1) it was necessary to dissolve it first into a small amount of methanol and then add it to the reaction mixture. […]
The superoxide was generated in our experimental set-up by the action of hypoxanthine on water and oxygen via the catalysis of xanthine oxidase. […] Simultaneously, EPR spectra are recorded of the free electrons associated with the free radicals. […]

Solubility in water = assay type: physicochemical
Sclerotinia sclerotiorum = assay: Antimycotic activity, minimum inhibitory concentration in potato dextrose broth; assay type: cell-based
Method: as §1

Rhizoctonia solani = assay: as above; assay type: cell-based
Method: as §1

[4] = Total oxyradical scavenging capacity (TOSC) assay; assay type: biochemical; conditions: for IC50: TOSC assay, ABAP initiator, KMBA, 37° C., ethylene by GC, read-out: solution concentration required to reduce the effects of the free radical initiator by 50%
From the text: The similarity of pestacin to isopestacin, described herein and in Strobel, G. A.; Ford, E.; Worapong, J.; Harper, J. K.; Arif, A. M.; Grant, D. M.; Fung, P.; Chau, R. M. W. Phytochem. […] Pestacin was thus analyzed using the total oxyradical scavenging capacity (TOSC) assay. This analysis assesses a compounds ability to inhibit a free radical initiator's oxidation of α-Keto-γ-methiolbutyric acid to release ethylene gas. Compounds with antioxidant properties thus decrease the production of ethylene gas, as measured gas chromatographically. Pestacin required a 1.7±0.1 mM solution to reduce the effects of the free radical initiator by 50%. In contrast, the water-soluble vitamin E derivative, troxol, required an 18.8±0.9 mM solution to exert the same effect. Pestacin, therefor, appears to be an extremely effective antioxidant as measured by this assay. A mechanism for antioxidant activity may also be proposed based on the structure of pestacin.
Antioxidant activity of (1) was assessed by dissolving 8.7 mg of (1) in 200 μL of DMSO then diluting the solution 1:10, 1:100, and 1:1000 in DMSO. A 10 μL volume of each sample was then combined in a 10 mL vial with 100 μL of 100 mM potassium phosphate buffer, 100 μL of 2 mM α-keto-γ-methiolbuthric acid (KMBA), and 690 μL of H2O. Control samples were also prepared containing 100 μL of 100 mM potassium phosphate buffer, 100 μL of 2 mM KMBA, and 700 μL of H2O. The sealed samples were then incubated at 37° C. for 5 minutes followed by injection of 100 μL of the free radical initiator, 2,2′-azobis(2-methylpropionamidine) (ABAP). Peroxy radicals, generated by thermal homolysis of ABAP at 37° C., then oxidized KMBA to produce ethylene gas. Ethylene production was monitored by gas chromatography of 1 mL samples removed every 12 minutes over a 96-minute period. Chromatographic analysis was performed on a Hewlett-Packard 5890A gas chromatograph equipped with a Supelco 6-foot Porpak Q packed column, a flame ionization detector, and employing helium as a carrier gas (30 mL/min). […]

SMILES | concentration giving total inhibition of Pythium ultimum (Pythium ultimum; at 48 hr, 100% reduction of growth) | IC50 [1] | effect in reducing the lipid free radical LOO−• [2] | IC50 [3] | solubility in water (Solubility in water) | inhibitory effect on Sclerotinia sclerotiorum (Sclerotinia sclerotiorum) | inhibitory effect on Rhizoctonia solani (Rhizoctonia solani) | MIC (Pythium ultimum; Globisporangium ultimum, previously described methodology, read-out: minimum inhibitory concentration against Pythium ultimum) | IC50 [4] | antioxidant activity relative to troxol ([4]; pestacin vs vitamin E derivative troxol)
Cc1cc(O)c2c(c1)C(c1c(O)cccc1O)OC2=O (racemic) [Isopestacin, 1-oxo-3-(9,13-dihydroxybenzene)-5-methyl-7-hydroxy-1,3-dihydrobenzofuranone] | 40 µg/mL | 0.22 mM | no effect | ≥ 0.185 mM | very low solubility in water | no inhibitory effect | no inhibitory effect |  |  | 
Cc1cc(O)c2c(c1)COC2c1c(O)cccc1O (racemic) [Pestacin] |  |  |  |  |  |  |  | ~10 µg/mL (≈ 38.7 µM) | 1.7 ± 0.1 mM | 11 times
Cc1c(C)c2c(c(C)c1O)CCC(C)(C(=O)O)O2 (centres unmarked) [troxol, reference compound] |  |  |  |  |  |  |  |  | 18.8 ± 0.9 mM | 
